Assay results from PubChem BioAssay AID330 (DTP/NCI, 2004).
Values joined by “and” are separate entries in the source; they are usually repeats but may differ in a detail not shown here. Identical values can stand only once. Inconclusive results and toxic doses are left out.

Tested on: P388 leukemia ip, CD2F1 mice, survival T/C
Assay: NCI In Vivo Anticancer Drug Screen. Data for tumor model P388 Leukemia (intraperitoneal) in CD2F1 (CDF1) mice
Settings: endpoint: median survival time, higher = longer survival
Outline: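 Mice carrying the transplanted tumor received test compound or vehicle. Survival was recorded in each group, and the value is the treated-group measurement divided by that of the vehicle-treated control group.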

[1] = dose: 60.0 mg/kg/injection, schedule: Q01DX005 (ip), vehicle: Klucel (hydroxypropylcellulose) (HPC)
[2] = dose: 120.0 mg/kg/injection, schedule: Q01DX005 (ip), vehicle: Klucel (hydroxypropylcellulose) (HPC)
[3] = dose: 240.0 mg/kg/injection, schedule: Q01DX005 (ip), vehicle: Klucel (hydroxypropylcellulose) (HPC)
[4] = dose: 50.0 mg/kg/injection, schedule: Q01DX005 (ip), vehicle: saline with Tween-80
[5] = dose: 100.0 mg/kg/injection, schedule: Q01DX005 (ip), vehicle: saline with Tween-80
[6] = dose: 200.0 mg/kg/injection, schedule: Q01DX005 (ip), vehicle: saline with Tween-80
[7] = dose: 60.0 mg/kg/injection, schedule: Q01DX005 (ip), vehicle: saline with Tween-80
[8] = dose: 120.0 mg/kg/injection, schedule: Q01DX005 (ip), vehicle: saline with Tween-80
[9] = dose: 240.0 mg/kg/injection, schedule: Q01DX005 (ip), vehicle: saline with Tween-80
[10] = dose: 50.0 mg/kg/injection, schedule: Q04DX003 (ip), vehicle: saline with Tween-80
[11] = dose: 12.5 mg/kg/injection, schedule: Q01DX009 (ip), vehicle: water
[12] = dose: 25.0 mg/kg/injection, schedule: Q01DX009 (ip), vehicle: water
[13] = dose: 50.0 mg/kg/injection, schedule: Q01DX009 (ip), vehicle: water
[14] = dose: 100.0 mg/kg/injection, schedule: Q01DX009 (ip), vehicle: water
[15] = dose: 3.12 mg/kg/injection, schedule: Q01DX009 (ip), vehicle: water
[16] = dose: 6.25 mg/kg/injection, schedule: Q01DX009 (ip), vehicle: water
[17] = dose: 50.0 mg/kg/injection, schedule: Q01DX009 (ip), vehicle: saline
[18] = dose: 100.0 mg/kg/injection, schedule: Q01DX009 (ip), vehicle: saline
[19] = dose: 200.0 mg/kg/injection, schedule: Q01DX009 (ip), vehicle: saline
[20] = dose: 50.0 mg/kg/injection, schedule: Q04DX002 (ip), vehicle: Klucel (hydroxypropylcellulose) (HPC)
[21] = dose: 6.25 mg/kg/injection, schedule: Q01DX009 (ip), vehicle: saline with Tween-80
[22] = dose: 12.5 mg/kg/injection, schedule: Q01DX009 (ip), vehicle: saline with Tween-80

O=S(=O)(c1ccc(Cl)cc1)N(CCCCCN(S(=O)(=O)c1ccc(Cl)cc1)S(=O)(=O)c1ccc(Cl)cc1)S(=O)(=O)c1ccc(Cl)cc1
T/C (dose: 30.0 mg/kg/injection, schedule: Q01DX005 (ip), vehicle: Klucel (hydroxypropylcellulose) (HPC)): 94 % of control | T/C [1]: 105 % of control | T/C [2]: 96 % of control | T/C [3]: 93 % of control

Cc1ccc2c(c1)C(=O)c1c(ccc3ccccc13)C2=O
T/C [4]: 95 % of control | T/C [5]: 100 % of control | T/C [6]: 104 % of control

Cc1cccc(N=Nc2c(-c3ccccc3)nn(C(=S)S)c2C)c1C
T/C (dose: 12.5 mg/kg/injection, schedule: Q01DX001 (ip), vehicle: saline with Tween-80): 100 % of control | T/C (dose: 25.0 mg/kg/injection, schedule: Q01DX001 (ip), vehicle: saline with Tween-80): 96 % of control | T/C (dose: 50.0 mg/kg/injection, schedule: Q01DX001 (ip), vehicle: saline with Tween-80): 96 % of control | T/C (dose: 200.0 mg/kg/injection, schedule: Q01DX001 (ip), vehicle: saline with Tween-80): 91 % of control | T/C (dose: 400.0 mg/kg/injection, schedule: Q01DX001 (ip), vehicle: saline with Tween-80): 99 % of control

Cc1nc2c(cnn2C)cc1CCc1ccccc1
T/C [7]: 94 % of control | T/C [8]: 95 % of control | T/C [9]: 103 % of control

CN1C(=O)C(=O)N(C)C(=O)C1=O
T/C (dose: 50.0 mg/kg/injection, schedule: Q01DX005 (ip), vehicle: Klucel (hydroxypropylcellulose) (HPC)): 100 % of control | T/C (dose: 100.0 mg/kg/injection, schedule: Q01DX005 (ip), vehicle: Klucel (hydroxypropylcellulose) (HPC)): 93 % of control | T/C (dose: 200.0 mg/kg/injection, schedule: Q01DX005 (ip), vehicle: Klucel (hydroxypropylcellulose) (HPC)): 103 % of control

Cc1cc2c(cc1C)C(O)CCC(=O)N2 (stereo unspecified)
T/C [7]: 95 % of control | T/C [8]: 91 % of control | T/C [9]: 87 % of control

COC(=O)C(Cc1ccc(N(CCCl)CCCl)cc1)N=NNc1nc[nH]c1C(N)=O (stereo unspecified)
T/C (dose: 12.5 mg/kg/injection, schedule: Q04DX003 (ip), vehicle: saline with Tween-80): 163 % of control | T/C (dose: 25.0 mg/kg/injection, schedule: Q04DX003 (ip), vehicle: saline with Tween-80): 168 % of control | T/C (dose: 33.0 mg/kg/injection, schedule: Q04DX003 (ip), vehicle: saline with Tween-80): 172 % of control | T/C [10]: 181 % of control and 213 % of control | T/C (dose: 75.0 mg/kg/injection, schedule: Q04DX003 (ip), vehicle: saline with Tween-80): 231 % of control

CN(C)CC(O)Cn1ccnc1[N+](=O)[O-] (stereo unspecified)
T/C [11]: 101 % of control | T/C [12]: 101 % of control | T/C [13]: 111 % of control | T/C [14]: 111 % of control | T/C (dose: 200.0 mg/kg/injection, schedule: Q01DX009 (ip), vehicle: water): 113 % of control

O=C1CCCOCCCOCCCOCCCOCCCOCCC1
T/C [4]: 103 % of control | T/C [5]: 100 % of control | T/C [6]: 100 % of control

Cc1cc(NCCCCCCNc2cc(C)nc3cc(N(C)C)ccc23)c2ccc(N(C)C)cc2n1
T/C (dose: 1.56 mg/kg/injection, schedule: Q01DX009 (ip), vehicle: distilled water + Tween-80 + alcohol): 110 % of control | T/C (dose: 6.25 mg/kg/injection, schedule: Q01DX009 (ip), vehicle: distilled water + Tween-80 + alcohol): 151 % of control | T/C (dose: 12.5 mg/kg/injection, schedule: Q01DX009 (ip), vehicle: distilled water + Tween-80 + alcohol): 154 % of control and 158 % of control | T/C (dose: 25.0 mg/kg/injection, schedule: Q01DX009 (ip), vehicle: distilled water + Tween-80 + alcohol): 178 % of control and 181 % of control

Cc1cccc(-c2cc3cccnc3nc2NN=O)c1C
T/C [15]: 106 % of control | T/C [16]: 105 % of control and 122 % of control | T/C [11]: 111 % of control | T/C [13]: 106 % of control and 121 % of control | T/C [14]: 93 % of control

CCOP(=O)(NNP(=O)(OCC)OCC)OCC
T/C [17]: 106 % of control | T/C [18]: 103 % of control | T/C [19]: 104 % of control

O=S(=O)(Nc1ncccn1)c1ccc(N=Cc2c3ccccc3nc3ccccc23)cc1
T/C (dose: 12.5 mg/kg/injection, schedule: Q04DX002 (ip), vehicle: Klucel (hydroxypropylcellulose) (HPC)): 96 % of control | T/C (dose: 25.0 mg/kg/injection, schedule: Q04DX002 (ip), vehicle: Klucel (hydroxypropylcellulose) (HPC)): 99 % of control | T/C [20]: 93 % of control | T/C (dose: 100.0 mg/kg/injection, schedule: Q04DX002 (ip), vehicle: Klucel (hydroxypropylcellulose) (HPC)): 99 % of control | T/C (dose: 200.0 mg/kg/injection, schedule: Q04DX002 (ip), vehicle: Klucel (hydroxypropylcellulose) (HPC)): 91 % of control | T/C (dose: 400.0 mg/kg/injection, schedule: Q04DX002 (ip), vehicle: Klucel (hydroxypropylcellulose) (HPC)): 96 % of control

CCCCCCCC[N+](C)(C)CCSCC[N+](C)(C)CCCCCCCC
T/C (dose: 3.13 mg/kg/injection, schedule: Q01DX009 (ip), vehicle: saline with Tween-80): 99 % of control | T/C [21]: 96 % of control | T/C [22]: 114 % of control

FC(F)(F)c1c[nH]cc1C(F)(F)F
T/C [20]: 109 % of control

O=CC(=O)Cc1ccccc1
T/C [17]: 99 % of control and 98 % of control | T/C [18]: 105 % of control and 98 % of control | T/C [19]: 100 % of control and 92 % of control | T/C (dose: 400.0 mg/kg/injection, schedule: Q01DX009 (ip), vehicle: saline): 99 % of control and 100 % of control

O=c1cc(CC2(O)CCCCC2)c2ccccc2[nH]1
T/C [1]: 95 % of control | T/C [2]: 102 % of control | T/C [3]: 95 % of control

c1ccc2c(CC3NCCN3)cccc2c1
T/C (dose: 6.25 mg/kg/injection, schedule: Q01DX009 (ip), vehicle: saline): 100 % of control | T/C (dose: 12.5 mg/kg/injection, schedule: Q01DX009 (ip), vehicle: saline): 100 % of control | T/C (dose: 25.0 mg/kg/injection, schedule: Q01DX009 (ip), vehicle: saline): 92 % of control

O=C1C=C(O)CN1C(=O)c1ccc(Cl)cc1
T/C (dose: 50.0 mg/kg/injection, schedule: Q01DX009 (ip), vehicle: Klucel (hydroxypropylcellulose) (HPC)): 98 % of control | T/C (dose: 100.0 mg/kg/injection, schedule: Q01DX009 (ip), vehicle: Klucel (hydroxypropylcellulose) (HPC)): 107 % of control | T/C (dose: 200.0 mg/kg/injection, schedule: Q01DX009 (ip), vehicle: Klucel (hydroxypropylcellulose) (HPC)): 107 % of control

O=C(/C=C/c1ccc(O)cc1)c1ccccc1
T/C [10]: 105 % of control and 94 % of control | T/C (dose: 100.0 mg/kg/injection, schedule: Q04DX003 (ip), vehicle: saline with Tween-80): 98 % of control and 105 % of control | T/C (dose: 200.0 mg/kg/injection, schedule: Q04DX003 (ip), vehicle: saline with Tween-80): 103 % of control and 105 % of control | T/C (dose: 400.0 mg/kg/injection, schedule: Q04DX003 (ip), vehicle: saline with Tween-80): 105 % of control

O=C(Nc1ccc(-c2c[nH]c(=O)c([N+](=O)[O-])c2)cc1)OCc1ccccc1
T/C [21]: 95 % of control | T/C [22]: 95 % of control

O=S1(=O)C=C(Cl)C2C3CC(C(Cl)C3Cl)C21 (stereo unspecified)
T/C (dose: 15.0 mg/kg/injection, schedule: Q04DX003 (ip), vehicle: saline): 100 % of control | T/C (dose: 30.0 mg/kg/injection, schedule: Q04DX003 (ip), vehicle: saline): 91 % of control

ClSC(c1ccccc1)(c1ccccc1)c1ccccc1
T/C [4]: 103 % of control | T/C [5]: 118 % of control | T/C [6]: 94 % of control

O=C1C2C3C=CC(O3)C2C(=O)N1/N=C/c1ccc2c(c1)OCO2 (stereo unspecified)
T/C [4]: 97 % of control | T/C [5]: 102 % of control | T/C [6]: 93 % of control

COc1ccc2nc(NN=O)sc2c1
T/C (dose: 1.56 mg/kg/injection, schedule: Q01DX009 (ip), vehicle: water): 92 % of control | T/C [15]: 101 % of control and 103 % of control | T/C [16]: 100 % of control and 92 % of control | T/C [11]: 100 % of control and 101 % of control | T/C [12]: 104 % of control and 97 % of control | T/C [13]: 111 % of control

CC(=N\N)/C(C)=N/N
T/C (dose: 25.0 mg/kg/injection, schedule: Q01DX009 (ip), vehicle: saline with Tween-80): 100 % of control | T/C (dose: 50.0 mg/kg/injection, schedule: Q01DX009 (ip), vehicle: saline with Tween-80): 121 % of control
